Test results from the supplement of paper PMC10331698.
± gives the standard deviation of the averaged measurements.

Columns and labels:
Assay in all cases: level (log10 ratio to DMSO vehicle control); higher = higher biomarker level / cell amount than vehicle control
Conditions in all cases: in DMSO
[1] = compound: FC(F)(F)C(F)(F)C(F)(F)C(F)(F)C(F)(F)C(F)(F)CC1CO1 [3-(Perfluorohexyl)-1,2-epoxypropane]
Description: (§1)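 BioMAP Diversity Plus panel of 12 human primary cell co-culture systems (3C, 4H, LPS, SAg, BT, BF4T, BE3C, CASM3C, HDF3CGF, KF3CT, MyoF, Mphg). Compounds were added 1 h before stimulation and left for 24 h (MyoF 48 h; BT 72 h for soluble read-outs or 6 d for IgG). Biomarkers were read by ELISA, cytotoxicity by SRB, PBMC viability and proliferation by Alamar Blue. Each well value was divided by the mean of 8 DMSO control wells on the same plate and log10 transformed; duplicate blinded samples were tested at 4 concentrations.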

[2] = compound: FC(F)(F)C(F)(F)CNCC(F)(F)C(F)(F)F [Bis(1H,1H-perfluoropropyl)amine]
Description: as §1

Octafluoroadipamide = compound: NC(=O)C(F)(F)C(F)(F)C(F)(F)C(F)(F)C(N)=O [Octafluoroadipamide]
Description: as §1

[3] = compound: NC(=O)C(F)(F)C(F)(F)C(F)(F)C(F)F
Description: as §1

[4] = compound: O=S(=O)(O)CCC(F)(F)C(F)(F)C(F)(F)C(F)(F)C(F)(F)C(F)(F)F [6:2 Fluorotelomer sulfonic acid]
Description: as §1

Row | Test System | level (log10) ([1]; 6700 nM) | level (log10) ([1]; 20000 nM) | level (log10) ([1]; 60000 nM) | level (log10) ([2]; 6700 nM) | level (log10) ([2]; 20000 nM) | level (log10) ([2]; 60000 nM) | level (log10) (Octafluoroadipamide; 6700 nM) | level (log10) (Octafluoroadipamide; 20000 nM) | level (log10) (Octafluoroadipamide; 60000 nM) | level (log10) ([3]; 6700 nM) | level (log10) ([3]; 20000 nM) | level (log10) ([3]; 60000 nM) | level (log10) ([4]; 6700 nM) | level (log10) ([4]; 20000 nM) | level (log10) ([4]; 60000 nM)
1 | HDF3CGF:Collagen III | -0.0075 ± 0.012 | -0.005 ± 0.0099 | 0.0155 ± 0.046 | -0.002 ± 0.018 | -0.002 ± 0.0042 | 0.0325 ± 0.036 | 0.0035 ± 0.044 | 0.0225 ± 0.00071 | 0.023 ± 0.052 | -0.011 ± 0.0042 | -0.0155 ± 0.012 | -0.0165 ± 0.00071 | -0.0555 ± 0.015 | -0.0115 ± 0.019 | 0.03 ± 0.093
2 | HDF3CGF:EGFR | -0.0135 ± 0.011 | -0.01 ± 0.011 | -0.0055 ± 0.036 | -0.0205 ± 0.06 | -0.0615 ± 0.14 | 0.034 ± 0.025 | -0.012 ± 0.082 | 0.0015 ± 0.054 | 0.0145 ± 0.087 | 0.001 ± 0.033 | 0.0025 ± 0.046 | 0.0125 ± 0.043 | -0.0455 ± 0.022 | -0.0535 ± 0.025 | -0.0305 ± 0.029
3 | HDF3CGF:M-CSF | 0 ± 0.014 | -0.002 ± 0.0042 | -0.019 ± 0.0085 | -0.0125 ± 0.025 | -0.018 ± 0.031 | -0.029 ± 0.069 | -0.017 ± 0.054 | -0.0215 ± 0.073 | 0.023 ± 0.0028 | -0.0065 ± 0.0078 | -0.008 ± 0.0014 | 0.017 ± 0.031 | -0.0255 ± 0.073 | -0.044 ± 0.068 | -0.082 ± 0.085
4 | HDF3CGF:MMP-1 | 0.0005 ± 0.0021 | 0.004 ± 0.0042 | 0.003 ± 0.0071 | 0.001 ± 0.0028 | -0.0145 ± 0.0092 | 0.0075 ± 0.0092 | 0.0035 ± 0.005 | 0.002 ± 0.011 | 0.0045 ± 0.012 | 0.0005 ± 0.00071 | -0.006 ± 0.0042 | 0.003 ± 0.0071 | -0.015 ± 0.027 | -0.039 ± 0.03 | -0.036 ± 0.064
5 | HDF3CGF:PAI-I | -0.0375 ± 0.019 | -0.022 ± 0.033 | -0.0115 ± 0.05 | -0.001 ± 0.0071 | -0.0105 ± 0.013 | 0 ± 0.033 | 0.018 ± 0.0099 | 0.018 ± 0.0014 | 0.009 ± 0.0014 | -0.012 ± 0.011 | -0.016 ± 0.0099 | 0 ± 0.038 | 0.005 ± 0.0042 | -0.0015 ± 0.0035 | -0.01 ± 0.011
6 | HDF3CGF:Proliferation 72hr | -0.014 ± 0.052 | -0.0355 ± 0.049 | 0 ± 0.069 | 0.002 ± 0.041 | -0.008 | 0.028 ± 0.038 | -0.041 ± 0.052 | 0.0825 ± 0.05 | -0.0115 ± 0.029 | -0.0005 ± 0.046 | -0.0245 ± 0.06 | -0.0205 ± 0.037 | 0.0015 ± 0.019 | 0.0725 ± 0.03 | 0.0405 ± 0.036
7 | HDF3CGF:SRB | -0.001 ± 0.031 | -0.0035 ± 0.015 | -0.006 ± 0.04 | -0.0275 ± 0.0078 | 0.008 ± 0.0014 | 0.0145 ± 0.05 | -0.0135 ± 0.047 | -0.0225 ± 0.066 | -0.0195 ± 0.046 | -0.007 ± 0.0042 | 0.0065 ± 0.016 | -0.0035 ± 0.015 | 0.0055 ± 0.044 | 0.0255 ± 0.056 | 0.023 ± 0.085
8 | HDF3CGF:TIMP-1 | 0.0085 ± 0.025 | 0.0265 ± 0.025 | 0.0305 ± 0.012 | 0 ± 0.0099 | -0.0525 ± 0.049 | 0.011 ± 0.0071 | 0.002 ± 0.0071 | 0.0015 ± 0.012 | 0.0035 ± 0.021 | -0.0005 ± 0.0064 | -0.0095 ± 0.043 | 0.0045 ± 0.039 | 0.0225 ± 0.08 | -0.0045 ± 0.076 | 0.0175 ± 0.13
9 | HDF3CGF:TIMP-2 | 0.0235 ± 0.012 | 0.0065 ± 0.00071 | -0.006 ± 0.02 | -0.005 ± 0.017 | -0.0085 ± 0.033 | 0.022 ± 0.0014 | -0.0695 ± 0.13 | -0.035 ± 0.061 | -0.002 ± 0.013 | 0.015 ± 0.025 | 0.027 ± 0.033 | 0.003 ± 0.0028 | -0.021 ± 0.0099 | -0.0205 ± 0.032 | 0.0245 ± 0.029
10 | KF3CT:CCL2/MCP-1 | 0.0005 ± 0.0092 | -0.0125 ± 0.03 | 0.0075 ± 0.053 | -0.0015 ± 0.05 | 0.001 ± 0.048 | -0.012 ± 0.042 | -0.017 ± 0.0085 | -0.026 ± 0.013 | -0.001 ± 0.021 | -0.0055 ± 0.018 | -0.0245 ± 0.0078 | 0.0205 ± 0.026 | 0.0125 ± 0.00071 | 0.0035 ± 0.013 | -0.0145 ± 0.043
11 | KF3CT:CXCL8/IL-8 | 0.012 ± 0.018 | 0.0175 ± 0.022 | 0.022 ± 0.0042 | -0.0005 ± 0.005 | -0.0065 ± 0.0092 | 0.0115 ± 0.015 | -0.005 | -0.0055 ± 0.0021 | 0.0095 ± 0.023 | -0.009 ± 0.0028 | 0.011 ± 0.011 | 0.019 ± 0.011 | -0.0005 ± 0.035 | -0.001 ± 0.027 | -0.0455 ± 0.022
12 | KF3CT:CXCL9/MIG | 0 | 0.01 ± 0.0057 | 0.0115 ± 0.0021 | 0.0085 ± 0.016 | -0.001 ± 0.0028 | 0.007 ± 0.011 | 0.0075 ± 0.0064 | 0.0035 ± 0.005 | 0.0075 ± 0.005 | 0.019 ± 0.018 | 0.006 ± 0.02 | 0.0145 ± 0.0078 | 0.0005 ± 0.013 | -0.0025 ± 0.022 | 0.0005 ± 0.013
13 | KF3CT:IL-1alpha | -0.0185 ± 0.0078 | 0.0085 ± 0.018 | 0.0015 ± 0.0021 | 0.0045 ± 0.022 | -0.013 ± 0.0014 | 0.0005 ± 0.046 | 0.014 ± 0.0028 | 0 ± 0.037 | 0.017 ± 0.017 | -0.0165 ± 0.011 | -0.0265 ± 0.005 | 0.008 ± 0.045 | 0.0115 ± 0.016 | 0.0005 ± 0.016 | -0.0255 ± 0.039
14 | KF3CT:MMP-9 | -0.014 ± 0.0042 | -0.0225 ± 0.00071 | -0.0155 ± 0.025 | -0.024 ± 0.0071 | -0.013 ± 0.035 | 0.001 ± 0.042 | -0.0325 ± 0.016 | -0.023 ± 0.0014 | -0.0115 ± 0.03 | -0.0095 ± 0.013 | 0.002 ± 0.025 | 0.0125 ± 0.023 | -0.0285 ± 0.019 | 0.0085 ± 0.018 | 0.026 ± 0.0028
15 | KF3CT:PAI-I | 0.0145 ± 0.032 | 0.019 ± 0.0014 | 0.0195 ± 0.0021 | -0.008 ± 0.03 | -0.0005 ± 0.005 | 0 ± 0.0042 | -0.0155 ± 0.012 | -0.0145 ± 0.025 | 0.004 ± 0.02 | -0.005 ± 0.0042 | -0.0085 ± 0.0064 | -0.007 ± 0.02 | 0.0025 ± 0.0021 | -0.012 ± 0.018 | -0.0135 ± 0.0092
16 | KF3CT:SRB | -0.0075 ± 0.0021 | -0.008 | 0 ± 0.013 | -0.007 ± 0.0057 | -0.007 ± 0.0014 | 0.0095 ± 0.011 | 0.0015 ± 0.00071 | -0.004 ± 0.011 | 0.0125 ± 0.005 | -0.006 ± 0.0028 | -0.0005 ± 0.0064 | -0.002 ± 0.013 | -0.004 | 0.0005 ± 0.0035 | 0.006 ± 0.016
17 | KF3CT:TIMP-2 | -0.0095 ± 0.0064 | -0.014 ± 0.013 | 0.003 ± 0.041 | 0.001 ± 0.017 | -0.024 ± 0.014 | 0.016 ± 0.054 | -0.0175 ± 0.00071 | -0.0085 ± 0.018 | 0.0265 ± 0.0021 | -0.006 ± 0.0057 | -0.005 ± 0.013 | 0.0015 ± 0.019 | -0.029 ± 0.0085 | -0.0035 ± 0.012 | 0.0015 ± 0.012
18 | KF3CT:uPA | 0.006 ± 0.011 | 0.001 ± 0.011 | -0.0015 ± 0.005 | 0.001 ± 0.013 | 0.0085 ± 0.0092 | 0.012 ± 0.013 | -0.0015 ± 0.018 | 0.0005 ± 0.0035 | 0.0145 ± 0.018 | 0.008 ± 0.025 | -0.0125 ± 0.028 | -0.008 ± 0.021 | 0.0015 ± 0.005 | -0.0115 ± 0.019 | 0.008 ± 0.03
19 | LPS:CCL2/MCP-1 | -0.012 ± 0.011 | -0.0055 ± 0.019 | 0.0025 ± 0.0078 | -0.0105 ± 0.00071 | -0.006 ± 0.0085 | 0.0015 ± 0.03 | 0.003 ± 0.0042 | 0.0005 ± 0.0035 | 0.018 ± 0.021 | 0.009 ± 0.045 | 0.005 ± 0.042 | 0.03 ± 0.013 | 0.0095 ± 0.0021 | 0.037 ± 0.018 | 0.056 ± 0.037
20 | LPS:CD40 | -0.0115 ± 0.012 | 0.01 ± 0.014 | -0.0045 ± 0.015 | 0.041 ± 0.041 | -0.0115 ± 0.047 | -0.0155 ± 0.025 | -0.044 ± 0.016 | -0.022 ± 0.035 | 0 ± 0.0028 | -0.0125 ± 0.029 | -0.0045 ± 0.018 | -0.03 ± 0.017 | 0.025 ± 0.048 | 0.0165 ± 0.037 | -0.015 ± 0.024
